How the values were obtained:
[1] = test system: human promyelocytic leukemic cell line HL-60; conditions: cited from earlier work
SVR angiosarcoma = assay: in vivo growth of SVR angiosarcoma; conditions: nude mice
Excerpt: FIG. 18 depicts the effect of honokiol on in vivo growth of SVR angiosarcoma in nude mice.
FIG. 18 illustrates the effect of honokiol on in vivo growth of SVR angiosarcoma in nude mice.

RPM18226 cells = assay: TUNEL assay; assay type: cell-based, human; conditions: RPM18226, 10 ug/ml, 48 h
Procedure: (§1) Assessment of HNK-induced cytotoxicity against patient MM cells: […] A CD38^high fraction enriched for MM cells was determined in side and forward scatter panel in each case. The expression of CD138 on gated cells was also evaluated. After HNK-treatment for 48 h, cells were harvested and percentage of CD38^high cells with or without HNK-treatment was evaluated. Cell cycle analysis: MM cells cultured with HNK were harvested, fixed with 70% ethanol, and pretreated with 250 μg/mL of RNAse (Sigma, St Louis, Mo.). Cells were stained with propidium iodide (PI; 50 μg/mL; Sigma, St Louis, Mo.), and cell cycle profile was determined by using the program M software on an EPICS XL flow cytometer (Beckman Coulter, Hialeah, Fla.). […] Fluorescence intensity of TUNEL and APO 2.7 staining was determined using on EPICS XL flow cytometer. Cytotoxicity was determined by trypan blue exclusion assay. […] Cell growth and induction of apoptosis were determined both by colorimetric assay and now cytometric detection of APO2.7 after 48 h treatment. […] Proliferation of MM cells was then assessed by [^3H]-thymidine uptake. […] DNA synthesis was measured by [^3H]-thymidine uptake. […] Angiogenesis assay: The anti-angiogenic effect of HNK was determined using an In Vitro Angiogenesis Assay Kit (Chemicon, Temecula, Calif.). […] After 6 h, tube formation by endothelial cells was evaluated. […]

MM.1S cells = assay: TUNEL assay; assay type: cell-based, human; conditions: 10 ug/ml, 48 h
Procedure: as §1

In the case of `C=CCc1ccc(O)c(-c2ccc(O)c(CC=C)c2)c1` [HNK, Honokiol], the IC50 value [1] is given as “less than 100 ng/ml”, the “in vivo growth of SVR angiosarcoma” value (SVR angiosarcoma) is given as “effective against tumors in vivo” and the “toxicity to the host animal” value (SVR angiosarcoma) is given as “nontoxic to the host animal”. It also gave a TUNEL positive cells (RPM18226 cells) of 41.5% and a TUNEL positive cells (MM.1S cells) of 38.2%.
